Data reported in paper PMC5274652, “Antagonizing Retinoic Acid Receptors Increases Myeloid Cell Production by Cultured Human Hematopoietic Stem Cells” (Archivum Immunologiae et Therapiae Experimentalis, 2016).

What was measured:
KG1 cells = experiment: Differentiation of KG1 cells (CD11b/CD14 flow cytometry); type: cell-based, human; conditions: 96 h
Procedure: (§1) NB-4 and KG1 cells were obtained from the German Resource Center for Biological Material (DSMZ GmbH, Braunschweig, Germany). The cells were grown in RPMI-1640 medium supplemented with 10 % fetal bovine serum (FBS), 100 U/ml penicillin, and 100 µg/ml streptomycin (Sigma, St Louis, MO, USA). Cells were grown at 37 °C in 5 % CO2.
(§2) The expression of differentiation markers at the cell surface was determined by flow cytometry. Differentiation of NB-4 and KG1 cells was measured by staining using the monoclonal antibodies CD11b-FITC and CD14-PE and appropriately labeled isotype controls (all from ImmunoTools, Friesoythe, Germany). Differentiation of human CD34^+ve cells was measured by triple-color staining using various cocktails of phycoerythrin-, fluorescein isothyocyanate-, and PerCP-monoclonal antibodies (from Becton–Dickinson, San Jose, CA, USA). The markers used to identify cell populations were as follows: CD45^+ve leukocytes; CD34^+ve/CD133^+ve HSCs; CD33^+ve/CD13^+ve immature myeloid; CD117^+ve myeloblasts and promyelocytes; CD11b^+ve/CD15^+ve mature myeloid; CD11b^+ve/CD65^+ve neutrophils; CD11b^+ve/CD14^+ve monocytes; glycophorin^+ve A erythroid cells; CD61^+ve megakaryoblasts and platelets; CD2^+ve/CD5^+ve/CD7^+ve T cells and NK cells; CD56^+ve NK cells; CD19^+ve/CD20^+ve B cells; and CD10^+ve B lymphocyte progenitors; and present on mature neutrophils and DR^+ve progenitors and present on mature monocytes. The cells were stained with 1 µl of the fluorescently labeled antibody (or the appropriate control immunoglobulin) for 1 h on ice. Next, they were washed with ice-cold phosphate-buffered saline (PBS) and suspended in 0.5 ml PBS supplemented with 0.1 % bovine serum albumin (Sigma, St Louis, MO, USA) prior to analysis on FACS Calibur flow cytometer (Becton–Dickinson, San Jose, CA, USA). The acquisition parameters were set for an isotype control. Cells were analyzed using a FACSCalibur, and data analysis was performed using the CellQuest Pro software (Becton–Dickinson, San Jose, CA, USA).

human RARβ = biological target: T1, human RARβ (Homo sapiens, UniProt P10826); experiment: Competition with [3H]-ATRA binding, nuclear extracts of Sf21 cells expressing RARβ; conditions: nuclear extracts of baculovirus-infected Sf21 cells, read-out: Binding affinity ED50, RARβ
T1 construct: made in house
T1 sequence (P10826 1-455): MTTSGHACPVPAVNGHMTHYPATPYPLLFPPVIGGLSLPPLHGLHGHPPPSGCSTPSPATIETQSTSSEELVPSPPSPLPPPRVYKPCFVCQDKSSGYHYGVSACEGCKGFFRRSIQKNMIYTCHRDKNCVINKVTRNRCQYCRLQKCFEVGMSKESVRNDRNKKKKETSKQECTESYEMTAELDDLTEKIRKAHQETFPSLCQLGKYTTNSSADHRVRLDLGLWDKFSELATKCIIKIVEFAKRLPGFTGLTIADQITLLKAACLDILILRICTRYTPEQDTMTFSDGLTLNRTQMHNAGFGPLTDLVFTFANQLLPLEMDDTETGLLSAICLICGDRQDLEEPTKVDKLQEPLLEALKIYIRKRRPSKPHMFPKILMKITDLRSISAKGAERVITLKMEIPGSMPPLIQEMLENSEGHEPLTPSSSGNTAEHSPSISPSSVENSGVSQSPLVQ

human RARα = biological target: T2, human RARα (Homo sapiens, UniProt P10276); experiment: Competition with [3H]-ATRA binding, nuclear extracts of Sf21 cells expressing RARα; conditions: nuclear extracts of baculovirus-infected Sf21 cells, read-out: Binding affinity ED50, RARα
T2 construct: made in house
T2 sequence (P10276 1-462): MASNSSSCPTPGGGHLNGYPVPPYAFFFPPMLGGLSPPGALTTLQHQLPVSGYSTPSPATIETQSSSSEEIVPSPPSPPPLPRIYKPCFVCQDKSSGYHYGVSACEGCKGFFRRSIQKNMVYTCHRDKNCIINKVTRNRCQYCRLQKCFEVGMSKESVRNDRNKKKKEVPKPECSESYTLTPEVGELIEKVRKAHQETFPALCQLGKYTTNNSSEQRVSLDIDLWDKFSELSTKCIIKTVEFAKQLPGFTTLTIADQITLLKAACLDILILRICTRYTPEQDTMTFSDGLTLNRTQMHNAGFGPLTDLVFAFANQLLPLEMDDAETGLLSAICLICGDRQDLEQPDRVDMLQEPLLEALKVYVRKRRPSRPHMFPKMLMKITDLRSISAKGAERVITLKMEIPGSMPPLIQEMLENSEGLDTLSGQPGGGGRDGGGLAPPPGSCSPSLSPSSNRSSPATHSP

human RARγ = biological target: T3, human RARγ (Homo sapiens, UniProt P13631); experiment: Competition with [3H]-ATRA binding, nuclear extracts of Sf21 cells expressing RARγ; conditions: nuclear extracts of baculovirus-infected Sf21 cells
T3 construct: made in house
T3 sequence (P13631 1-454): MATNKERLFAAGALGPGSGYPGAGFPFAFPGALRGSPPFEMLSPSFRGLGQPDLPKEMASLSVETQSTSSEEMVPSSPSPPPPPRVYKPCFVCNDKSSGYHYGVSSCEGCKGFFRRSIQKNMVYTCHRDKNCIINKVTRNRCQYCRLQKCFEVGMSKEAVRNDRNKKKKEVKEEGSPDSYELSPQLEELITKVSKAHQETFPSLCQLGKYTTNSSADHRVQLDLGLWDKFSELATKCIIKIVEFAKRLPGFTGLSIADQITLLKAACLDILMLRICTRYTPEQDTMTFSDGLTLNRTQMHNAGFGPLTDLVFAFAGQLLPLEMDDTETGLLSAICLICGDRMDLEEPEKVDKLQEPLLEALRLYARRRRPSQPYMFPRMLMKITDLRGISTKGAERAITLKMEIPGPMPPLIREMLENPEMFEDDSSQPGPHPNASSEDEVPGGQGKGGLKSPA

NB-4 cells = experiment: Differentiation of NB-4 cells (CD11b/CD14 flow cytometry); type: cell-based, human; conditions: 96 h
Procedure: as §1, §2

CD34^+vehuHSC = experiment: Cell production and lifespan of CD34+ve huHSC-initiated cultures; type: cell-based, human
Text: (§3) The cells used were CD34^+ve cells purified from the blood of normal human adult donors and post-mobilization of stem cells to the blood. Cells obtained and purified in this manner are used routinely by the National Blood Service Stem Cell Laboratory in Birmingham for bone marrow transplantation. Ethics approval for the use of adult human blood-mobilized stem cells (CD34^+vehuHSC) was from the West Midlands Research Ethics Committee. Informed consent was obtained by the regional National Blood Service Stem Cell Laboratory in Birmingham. CD34^+ve cells were purified to 99 % CD34^+ve, 97 % CD133^+ve, >99 % lineage^−ve (n = 15) using an anti-CD34 monoclonal antibody, immunomagnetic beads, and a CliniMACS magnetic separator. Purified cells were plated at 5 × 10^5 cells/ml in microtiter wells in 200 μl of either RPMI-1640 medium (R and D Systems, Abingdon, UK) or HPGM^TM hematopoietic growth medium (Lonza, UK) containing either 10 % FBS or 10 % human serum, antibiotics (100 U/ml penicillin and 100 μg/ml streptomycin) and stem cell factor (SCF), interleukin (IL)-3, and granulocyte-colony stimulating factor (G-CSF) (all from R and D Systems Abingdon, UK) as stated in the results. Cultures were fed every 2–3 days (with fresh compound), split into microtiter wells, and then expanded into 2 ml Costar wells to maintain a cell density of between 2.5 and 10 × 10^5 cells/ml. Cells were grown at 37 °C in 5 % CO2. Viable cells were enumerated by phase contrast microscopy (400× magnification).
as §2

[1] = test system: lineage^−ve/CD133^+ve/CD34^+vehuHSC; experiment: Ex vivo expansion of lineage-ve/CD133+ve/CD34+ve huHSC; type: cell-based, human; conditions: all 15 donors; control 8–10-fold
Text: as §3, with “Viable cells were enumerated by phase contrast microscopy (400× magnification).” left out
The expression of differentiation markers at the cell surface was determined by flow cytometry. Differentiation of NB-4 and KG1 cells was measured by staining using the monoclonal antibodies CD11b-FITC and CD14-PE and appropriately labeled isotype controls (all from ImmunoTools, Friesoythe, Germany). Differentiation of human CD34^+ve cells was measured by triple-color staining using various cocktails of phycoerythrin-, fluorescein isothyocyanate-, and PerCP-monoclonal antibodies (from Becton–Dickinson, San Jose, CA, USA). […] Cells were analyzed using a FACSCalibur, and data analysis was performed using the CellQuest Pro software (Becton–Dickinson, San Jose, CA, USA).

CC1(C)CCC(C)(C)c2c1cc(C(=O)Nc1cc(F)c(C(=O)O)c(F)c1)c(O)c2Cl [AGN195183]
CD11b+ve/CD14+ve cells (monocyte differentiation) (KG1 cells; KG1 cells, 100 nM combined with 10 nM 1,25D): 18% | IC50 (human RARβ): > 5000 nM | IC50 (human RARα): 20.1 nM | IC50 (human RARγ; read-out: Binding affinity ED50, RARγ): > 5000 nM | CD11b+ve/CD14+ve cells (monocyte differentiation) (NB-4 cells; NB-4 cells, 100 nM combined with 10 nM 1,25D): 40% | CD11b+ve/CD14−ve cells (neutrophil differentiation) (NB-4 cells; NB-4 cells, 100 nM, alone): 40%

C=C1/C(=C\C=C2/CCC[C@]3(C)[C@@H]([C@H](C)CCCC(C)(C)O)CC[C@@H]23)C[C@@H](O)C[C@@H]1O [1,25D, 1α,25-Dihydroxyvitamin D3]
CD11b+ve/CD14+ve cells (monocyte differentiation) (NB-4 cells; NB-4 cells, 10 nM, alone): ~ 6%

CCOc1c(Br)cc(C(=O)Nc2ccc(C(=O)O)cc2)cc1C(=O)c1ccc(C)cc1 [AGN196996]
cells (largely myeloid) produced versus γ antagonist-treated and control cultures (CD34^+vehuHSC; by day 20): around fourfold more cells | prolonged lifespan of cultures (CD34^+vehuHSC; human HSCs supplemented with stem cell factor ± interleukin 3, abstract): up to 55 days | effect on differentiation of KG1 cells (KG1 cells; 100 nM together with 10 nM 1,25D): no effect | effect on differentiation of KG1 cells (KG1 cells; 100 nM, used alone): no effect | IC50 (human RARβ): 4036 nM | expansion of lineage−ve/CD133+ve/CD34+ve cells [1]: around 20 fold | IC50 (human RARα): 3.9 nM | Binding affinity ED50, RARγ (human RARγ): >10,000 nM | effect on differentiation of NB-4 cells (NB-4 cells; 100 nM with 10 nM 1,25D, compared with 1,25D alone): did not have an appreciable effect | effect on differentiation of NB-4 cells (NB-4 cells; 100 nM, used alone): no effect

B1: granulocyte-colony stimulating factor (protein, UniProt P09919 31-207, looked up)
Granulocyte …: TPLGPASSLPQSFLLKCLEQVRKIQGDGAALQEKLVSECATYKLCHPEELVLLGHSLGIPWAPLSSCPSQALQLAGCLSQLHSGLFLYQGLLQALEGISPELGPTLDTLQLDVADFATTIWQQMEELGMAPALQPTQGAMPAFASAFQRRAGGVLVASHLQSFLEVSYRVLRHLAQP
notes: growth factor added at 30 ng/ml as benchmark for optimal generation of myeloid cells
cells produced versus control cultures (CD34^+vehuHSC; 30 ng/ml, by day 30): fourfold more cells | time for which cultures were maintained (CD34^+vehuHSC; 30 ng/ml, 10 % FBS, 100 ng/ml SCF, 5 ng/ml IL-3): ≤ 55 days
